Results published in US7169753B2, “Chlorophyll and bacteriochlorophyll esters, their preparation and pharmaceutical compositions comprising them” (Yeda Research and Development Co. Ltd., priority 1999, dated 2007).

System: M2R melanoma cells
Assay: Photodynamic activity in monolayer cell culture (phototoxicity to melanoma cells)
Type: cell-based
Settings: mouse M2R melanoma cells, 4 hrs dark incubation, irradiation 600–1300 nm; for phototoxicity to M2R melanoma cells (result in words): viability by [3H]-thymidine incorporation, formed aggregates in the liposomes
Method: Liposome Preparation L-α-Dipalmitoylphosphatidylcholine (DPPC) liposomes as carrier system for pigments insoluble in water were prepared according to Toledano, 1998 and to Cuomo et al. 1990. […] (≅130 μg) of the photosensitizer and 5 mg DPPC were dissolved in 400 μl chloroform. Onto this were layered 250 μl H2O and 250 μl phosphate buffer (pH=7,2; 1,5 mM KH2PO4; 7,6 mM Na2HPO4; 0,15 M NaCl). The chloroform was removed within 5 min with a rapid stream of argon, while the mixture was sonicated and maintained at 45° C. Sonication was continued for another 20 min and the liposomes loaded with pigment were recovered in the supernatant after centrifugation (16 000×g, 10 min). The liposome concentration was determined photometrically at 750 nm (according to Grossweiner and Grossweiner, 1982). Photodynamic Activity in Monolayer Cell Culture M2R melanoma cells (mice) were cultivated as monolayers in 96-well microtiter-plates in DMEM (Dulbecco's modified Eagle's medium)/F12 1/1 (v/v) at 37° C. in a moist atmosphere containing 8% CO2. The medium (pH 7.4) was supplemented with HEPES buffer (25 mM), fetal-bovine-serum (FBS) (10%), glutamine (2 mM), penicillin (0.06 mg/ml) and streptomycin (0.1 mg/ml). Within 24 hrs, the cell density increased from 1×10^4 to 2×10^4 cell/100 μl. Increasing amounts of the liposome preparation containing the BChl-derivative were added to the cells. (Pd-BPheid-ser or Pd-BPheid-Nglc were added as ethanolic solution (10^−4 M) such that the maximum concentration of ethanol was <1%). The cells were first kept in the dark for 4 hrs, washed with 100 μl of the medium, treated with 100 μl of fresh medium, and then irradiated from below through the bottom of the plates with a russian BS LS3-PDT lamp, fitted with a filter (600–1300 nm). A light-dose of 10 mW x s x cm^−2 was provided during an irradiation time of […]. After an additional 24 h in the dark at 37° C., cell viability was determined by microscopic inspection (cell size and shape) and via [^3H]-thymidine incorporation into the DNA (Chen et al. 1988). […]

For “13^3-tert.-butyl-benzyl-Pd-bacteriopheophorbide-a-17^3-tert-butyl-benzyl ester [tbb-Pd-BPheid-tbb]”, the “phototoxicity to M2R melanoma cells (result in words)” value was “ineffective”.
In the case of “13^3-tert-butyl-benzyl-Pd-bacteriopheophorbide-a-17^3-methyl ester [tbb-Pd-Bpheid-me]”, the “LD90 (phototoxicity)” value (viability by [3H]-thymidine incorporation after 24 h, sensitizers in DPPC liposomes (Pd-BPheid-ser as ethanolic solution)) is reported as 1.1 µM.
For “Pd-bacteriopheophorbide a-17^3-N-glucosamide [Pd-BPheid-Nglc]”, the “phototoxicity to M2R melanoma cells (result in words)” value was “ineffective”.
